SMILES | logP
CC(C)NC(=O)NS(=O)(=O)c1ccccc1 | 1.34
CNC(=O)NS(=O)(=O)Cc1ccccc1 | 0.54
CNC(=O)N(C)S(=O)(=O)Cc1ccccc1 | 1.18
CCCNC(=O)NS(=O)(=O)c1ccccc1 | 1.44
CN(C)C(=O)NS(=O)(=O)Cc1ccccc1 | 0.54
CC(C)(C)NC(=O)NS(=O)(=O)c1ccccc1 | 1.95
CCN(CC)C(=O)NS(=O)(=O)c1ccccc1 | 0.99

Second part, the molecule after the results:

logP | SMILES
0.44 | CNC(=O)NS(=O)(=O)c1ccccc1
0.28 | NC(=O)NS(=O)(=O)c1ccccc1
0.28 | CN(C)C(=O)NS(=O)(=O)c1ccccc1
0.42 | CNC(=O)N(C)S(=O)(=O)c1cccnc1
-0.65 | NC(=O)NS(=O)(=O)c1cccnc1
-0.45 | CNC(=O)NS(=O)(=O)c1cccnc1
0.9 | CCNC(=O)NS(=O)(=O)c1ccccc1
